Read-outs that look alike come from different tables or passages of the source.
How the values were obtained:
[1] = target: T1, Rat 11β-HSD2 (Rattus norvegicus, UniProt P50233); test: 11β-HSD2 assay in rat kidney microsomes; type: biochemical; conditions: for IC50: rat kidney microsomes
T1 construct: from tissue; host or cells: rat kidney microsomes
T1 sequence (P50233 1-400): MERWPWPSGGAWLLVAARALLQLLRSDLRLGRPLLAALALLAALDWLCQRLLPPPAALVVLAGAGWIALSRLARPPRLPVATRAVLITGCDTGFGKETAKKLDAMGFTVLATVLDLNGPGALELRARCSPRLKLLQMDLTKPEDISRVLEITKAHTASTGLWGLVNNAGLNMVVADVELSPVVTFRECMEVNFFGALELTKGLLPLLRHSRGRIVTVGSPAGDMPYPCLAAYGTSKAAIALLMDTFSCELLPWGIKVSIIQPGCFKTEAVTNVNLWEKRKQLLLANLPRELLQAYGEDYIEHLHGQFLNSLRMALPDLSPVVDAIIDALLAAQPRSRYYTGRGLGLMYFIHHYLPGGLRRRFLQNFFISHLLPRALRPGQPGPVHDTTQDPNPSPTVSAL
Protocol: (§1) Rats were euthanized by CO2, and livers, testes and kidneys were collected. Rat liver, testis and kidney microsomes were prepared as described previously. In brief, rat liver and kidney were homogenized in […] PBS buffer containing 0.25 M sucrose, and nuclei and large cell debris were removed by centrifugation at 1500× g for 10 min. The post-nuclear supernatants were centrifuged twice at 105,000×g, the resultant microsomal pellets were resuspended. Protein contents were measured by Bio-Rad Dye Reagent Concentrate (Cat.#500-0006). Microsomes were used for measurement of 11β-HSD1 and 11β-HSD2 activities.
The rat and human kidney microsomes were used for 11β-HSD2 sources. 11β-HSD2 activity was performed in the microsome according to a previously described method. […] 8 (rat) or 20 (human) µg kidney microsomes were added to each tube to initiate the reaction and the reaction mixture was incubated for up to 3 hrs, during which the reaction is within the linear range. The rest procedure was similar to 11β-HSD1 assay. The percentage conversion of CORT to 11DHC or cortisol to cortisone was calculated by dividing the radioactive counts identified as 11keto-steroids by the total counts.
(§2) The IC50 was determined by adding different concentrations of each compound in the 11β-HSD1 or 11β-HSD2 reaction as described. The mode of inhibition was assayed by adding various concentrations of steroid substrates in the presence of an inhibitor as described.

[2] = target: T2, Rat 11β-HSD1 (Rattus norvegicus, UniProt P16232); test: 11β-HSD1 assay in intact rat Leydig cells; type: cell-based; conditions: for IC50 / Rat 11β-HSD1 Potency to Curcumin (fold): intact rat Leydig cells; for IC50: read-out: Rat 11β-HSD1 IC50 (nM) in Leydig cells; for Rat 11β-HSD1 Potency to Curcumin (fold): relative to curcumin
T2 construct: endogenous in cells; host or cells: primary adult Sprague-Dawley rat Leydig cells
T2 sequence (P16232 whole entry): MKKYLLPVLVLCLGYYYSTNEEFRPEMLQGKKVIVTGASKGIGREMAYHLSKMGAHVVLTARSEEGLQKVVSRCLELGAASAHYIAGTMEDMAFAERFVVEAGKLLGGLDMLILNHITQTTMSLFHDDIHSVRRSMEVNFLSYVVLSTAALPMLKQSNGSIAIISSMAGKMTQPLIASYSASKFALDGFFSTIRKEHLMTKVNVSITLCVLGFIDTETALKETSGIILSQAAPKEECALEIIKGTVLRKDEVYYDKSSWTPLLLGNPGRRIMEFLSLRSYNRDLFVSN
Protocol: Rat Leydig cells contain the highest 11β-HSD1 activity in all cell types of rat tissues, and were used for rat 11β-HSD1 enzyme sources. Purified rat Leydig cells were obtained from 90-day-old Sprague-Dawley rats by collagenase digestion of the testes followed by Percoll density centrifugation of the cell suspension, according to the previously described method. […] The purity of cell fractions was evaluated by histochemical staining for 3β-hydroxysteroid dehydrogenase activity with […] etiocholanolone as the steroid substrate.
(§3) 11β-HSD1 reductase activity was performed in intact cells using endogenous cofactor NADPH as described previously. […] 25×10^3 cells were added to each tube to initiate the reaction and the reaction mixture was incubated for up to 2 hrs, during which the reaction is within the linear range. At the end of reaction, the reaction was stopped by adding 2 ml ice-cold ether. The steroids were extracted, and the organic layer was dried under nitrogen. The steroids were separated chromatographically on thin layer plates in chloroform and methanol (90∶10, v/v), and the radioactivity was measured using a scanning radiometer (System AR2000, Bioscan Inc., Washington, DC) as described previously. The percentage conversion of 11DHC to CORT or cortisone to cortisol was calculated by dividing the radioactive counts identified as 11-OH-steroids by the total counts.
as §2

[3] = target: T3, Human 11β-HSD1 (Homo sapiens, UniProt P28845); test: 11β-HSD1 assay in intact CHOP cells transfected with human HSD11B1; type: cell-based; conditions: for Human 11β-HSD1 Potency to Curcumin (fold): CHOP cells transfected with human HSD11B1, relative to curcumin
T3 construct: expressed in transfected cells; host or cells: CHOP cells (transient, FuGENE)
T3 sequence (P28845 whole entry): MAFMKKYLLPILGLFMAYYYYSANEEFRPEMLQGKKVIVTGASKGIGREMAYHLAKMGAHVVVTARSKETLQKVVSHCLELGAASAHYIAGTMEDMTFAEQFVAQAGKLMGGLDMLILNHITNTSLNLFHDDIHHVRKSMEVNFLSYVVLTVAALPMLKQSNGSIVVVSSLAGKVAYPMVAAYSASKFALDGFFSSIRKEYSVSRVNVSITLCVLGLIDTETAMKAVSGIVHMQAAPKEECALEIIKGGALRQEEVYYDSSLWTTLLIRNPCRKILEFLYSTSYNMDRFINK
Protocol: (§4) An expression plasmid was constructed to express human 11β-HSD1 (HSD11B1) cDNA in pcDNA I expression vector from its original human HSD11B1 vector (pBluescriptSK+).[15]. The Escherichia coli transformants carrying an insert were selected by colony hybridization, and a clone with the insert in the correct orientation relative to the vector T7 promoter was identified by restriction mapping. All transfections were carried out on 80% confluent cultures in 12-well plates. Aliquots of 1 µg HSD11B1 pcDNA I were transfected into mammalian CHOP cells with the FuGENE Transfection Reagent (Roche) according to manufacturer's protocol. Cells were allowed to grow for 24 hours in media containing 10% fetal bovine serum. Then media were removed and cells were harvested for 11β-HSD1 activity assay.
as §3, §2

[4] = target: T4, Human 11β-HSD2 (Homo sapiens, UniProt P80365); test: 11β-HSD2 assay in human kidney microsomes; type: biochemical; conditions: for IC50: human kidney microsomes, read-out: IC50 (nM) Human 11β-HSD2
T4 construct: tissue Gentest (Woburn, MA); host or cells: human kidney microsomes
T4 sequence (P80365 1-405): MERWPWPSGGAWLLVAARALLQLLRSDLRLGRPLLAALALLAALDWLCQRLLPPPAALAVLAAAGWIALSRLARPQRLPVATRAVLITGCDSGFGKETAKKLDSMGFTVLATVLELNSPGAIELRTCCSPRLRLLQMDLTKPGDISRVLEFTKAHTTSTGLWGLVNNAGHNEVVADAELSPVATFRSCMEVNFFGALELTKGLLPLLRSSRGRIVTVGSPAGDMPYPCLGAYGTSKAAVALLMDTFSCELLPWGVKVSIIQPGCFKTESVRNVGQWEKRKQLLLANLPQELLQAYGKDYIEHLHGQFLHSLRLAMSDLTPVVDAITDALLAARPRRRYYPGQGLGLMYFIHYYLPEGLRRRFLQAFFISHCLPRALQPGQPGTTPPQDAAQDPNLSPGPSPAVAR
Protocol: The rat and human kidney microsomes were used for 11β-HSD2 sources. 11β-HSD2 activity was performed in the microsome according to a previously described method. In brief, the assay tubes contained 25 nM substrate CORT (for rat) or cortisol (for human), spiked with 30,000 cpm their respective ^3H-11β-hydroxyl steroid, 0.2 mM NAD+ and 0.1 mM DTT in the PBS buffer. 8 (rat) or 20 (human) µg kidney microsomes were added to each tube to initiate the reaction and the reaction mixture was incubated for up to 3 hrs, during which the reaction is within the linear range. The rest procedure was similar to 11β-HSD1 assay. The percentage conversion of CORT to 11DHC or cortisol to cortisone was calculated by dividing the radioactive counts identified as 11keto-steroids by the total counts.
as §2

[5] = target: T2, Rat 11β-HSD1; test: 11β-HSD1 assay in adult rat testis microsomes; type: biochemical; conditions: microsomes, screening
Protocol: as §1
(§5) The rat testis and liver or human liver microsomes were used for 11β-HSD1 assay. 11β-HSD1 activity was performed in the microsome according to a previously described method. […] 2 µg microsomes were added to each tube to initiate the reaction and the reaction mixture was incubated for up to 2 hrs, during which the reaction is within the linear range. The rest procedure was similar to 11β-HSD1 assay in intact cells.
as §2

[6] = target: T3, Human 11β-HSD1; test: 11β-HSD1 assay in microsomes from CHOP cells transfected with human HSD11B1; type: biochemical; conditions: microsomes, screening
Protocol: as §4, §5, §2

[7] = CHOP cells transfected with human HSD11B1, read-out: Human 11β-HSD1 IC50 (nM) in CHOP cells

SMILES | IC50 [1] [nM] | Inhibition of rat 11β-HSD1 at 100 μM ([2]; 100 μM, intact cells) | IC50 [2] [nM] | Inhibition of human 11β-HSD1 at 100 μM ([3]; 100 μM, intact cells) | IC50 [3, 7] [nM] | IC50 [4] [nM] | Inhibitory effect against rat 11β-HSD1 in nutraceutical screen [5] | Inhibitory effect against human 11β-HSD1 in nutraceutical screen [6] | Rat 11β-HSD1 Potency to Curcumin (fold) [2] [fold] | Human 11β-HSD1 Potency to Curcumin (fold) [3] [fold] | Inhibition of rat 11β-HSD2 at 100 µM [1] | Inhibition of human 11β-HSD2 at 100 µM [4] | IC50 ([3]; intact CHOP cells transfected with human HSD11B1, read-out: IC50 human 11β-HSD1 in intact cells) [nM]
Cc1ccsc1/C=C1\CC/C(=C\c2sccc2C)C1=O [compound 9, (1E,4E)-1,5-bis(3-methylthiophen-2-yl) cyclopentanone] | > 100000 | did not inhibit | > 100000 | did not inhibit | > 100000 | > 100000 |  |  |  |  |  |  | 
COc1ccc(-c2oc3c(CC=C(C)C)c(O[C@@H]4O[C@H](CO)[C@@H](O)[C@H](O)[C@H]4O)cc(O)c3c(=O)c2O[C@@H]2O[C@@H](C)[C@H](O)[C@@H](O)[C@H]2O)cc1 [icariin] |  |  |  |  |  |  | only curcumin (compound 1) showed inhibitory effects | only curcumin (compound 1) showed inhibitory effects |  |  |  |  | 
Cc1ccsc1/C=C/C(=O)/C=C/c1sccc1C [compound 4, (1E,4E)-1,5-bis(3-methylthiophen-2-yl) penta-1,4-dien-3-one] | > 100000 |  | 114 |  | 183 | 19600 |  |  | 50.75 | 12.54 |  |  | 
O=C1/C(=C/c2cccs2)CC/C1=C\c1cccs1 [compound 11] | > 100000 |  | 1050 |  | 225 | > 100000 |  |  | 5.51 | 10.20 | did not inhibit | did not inhibit | 
Cn1cccc1/C=C1\CC/C(=C\c2cccn2C)C1=O [compound 10] | > 100000 |  | > 100000 |  | > 100000 | > 100000 |  |  |  |  |  |  | 
O=C1/C(=C/c2cccs2)CCC/C1=C\c1cccs1 [compound 16, (1E,4E)-1,5-bis(thiophen-2-yl) cyclohexanone] | > 100000 |  | 2550 |  | 3570 | > 100000 |  |  | 2.27 | 0.64 |  |  | 3570
Cn1cccc1/C=C1\CCC/C(=C\c2cccn2C)C1=O [compound 15] | > 100000 |  | 11800 |  | 2100 | > 100000 |  |  | 0.49 | 1.09 |  |  | 
COc1ccc2cc3[n+](cc2c1OC)CCc1cc2c(cc1-3)OCO2 [berberine] |  |  |  |  |  |  | only curcumin (compound 1) showed inhibitory effects | only curcumin (compound 1) showed inhibitory effects |  |  |  |  | 
O=C1/C(=C/c2ccc(Br)o2)CCC/C1=C\c1ccc(Br)o1 [compound 12] | > 100000 |  | 10800 |  | 3050 | > 100000 |  |  | 0.54 | 0.75 |  |  | 
Cc1ccc(/C=C2\CC/C(=C\c3ccc(C)s3)C2=O)s1 [compound 8] | > 100000 |  | 2670 |  | 111 | > 100000 |  |  | 2.17 | 20.68 | did not inhibit | did not inhibit | 
O=C(/C=C/c1ccc(Br)o1)/C=C/c1ccc(Br)o1 [compound 2] | > 100000 |  | 4210 |  | 995 | > 100000 |  |  | 1.38 | 2.31 |  |  | 
Cc1ccc(/C=C2\CCC/C(=C\c3ccc(C)s3)C2=O)s1 [compound 13] | > 100000 |  | 11900 |  | 4590 | > 100000 |  |  | 0.48 | 0.50 |  |  | 
O=C1/C(=C/c2ccc(Br)o2)CC/C1=C\c1ccc(Br)o1 [compound 7] | > 100000 |  | 3130 |  | 1330 | > 100000 |  |  | 1.85 | 1.73 |  |  | 
